The structures appear in SMILES notation.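 Cultured in 96-well plates, cells were exposed to test compound for 48 hours across five concentrations. GI50: concentration for 50% inhibition of growth.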 Activity calls are given as the source filed them. Cut-off read from the data, not from the text of the source: active = GI50 up to about 1.1 µM and inactive = higher.

Holding throughout (test): growth of human tumour cells (NCI), 48 h
In assay [1] the test system is OVCAR-3.
The subject of assay [2] is PC-3.
In assay [3] the test system is A549.
Assay [4] concerns HCT-116.
Assay [5] concerns IGROV-1.
The subject of assay [6] is 786-0.
Assay [7] concerns MCF7.
The subject of assay [8] is SF-295.
Assay [9] relates to SN12C.
In assay [10] the test system is OVCAR-4.
The test system of assay [11] is HL-60.
For assay [12], the system named is TK-10.
For assay [13], the system named is CCRF-CEM.
Assay [14] deals with SR.
Assay [15] deals with ACHN.
Assay [16] concerns SK-OV-3.
The test system of assay [17] is DU-145.
The test system of assay [18] is SNB-19.
Assay [19] deals with SF-268.

Turning to `O=C(O)CCCc1ccc2c(c1)CC1(C2)Cc2cc3c(cc2C1)CCCC3`, the GI50 was 19.3 µM (inactive) in assay [1]; 24.6 µM (inactive) in assay [2]; 6.43 µM (inactive) in [3]; 2.56 µM (inactive) in assay [4]; 20 µM (inactive) in [5]; 28.6 µM (inactive) in assay [6]. Besides, the GI50 in [7] is 39.4 µM (inactive); in assay [8], 23.9 µM (inactive); in assay [9], 22.1 µM (inactive); in [10], 19.5 µM (inactive); in assay [11] it was 11.6 µM (inactive); in assay [12] it was 42.7 µM (inactive). Also, the GI50 in [13] was 11.6 µM (inactive); in [14], 18.4 µM (inactive); in [15] it was 17 µM (inactive); in [16], 24.7 µM (inactive).
Take `O=C(CP(c1ccccc1)c1ccccc1)c1cccc(C(=O)CP(c2ccccc2)c2ccccc2)c1`: the GI50 was 55.8 µM (inactive) in assay [17]; 37.2 µM (inactive) in [2]; 15.6 µM (inactive) in assay [3]; 36.8 µM (inactive) in assay [4]; > 100 µM (inactive) in assay [5]; 85.7 µM (inactive) in [6]. Further, the GI50 was 43.8 µM (inactive) in [18]; 17.9 µM (inactive) in assay [7]; 26.1 µM (inactive) in assay [8]; 56.8 µM (inactive) in assay [9]; 26.1 µM (inactive) in assay [10]; 16.2 µM (inactive) in assay [11]. For the same compound, the GI50 in assay [12] was > 100 µM (inactive); in assay [19], 80.9 µM (inactive); in [13], 6.76 µM (inactive); in assay [14], 15.7 µM (inactive); in assay [15] it was 84.1 µM (inactive); in assay [16], > 100 µM (inactive).
For `C=C/C(C)=C\CC1[C@](C)(O)CC[C@H]2C(C)(C)C(O)CC[C@]12C` (stereo partly drawn), the GI50 is > 100 µM (inactive) in [17]; 92.3 µM (inactive) in assay [1]; 70 µM (inactive) in assay [2]; > 100 µM (inactive) in [3]; 54.8 µM (inactive) in assay [4]; > 100 µM (inactive) in assay [5]. Besides, the GI50 was > 100 µM (inactive) in assay [6]; > 100 µM (inactive) in assay [18]; 70.1 µM (inactive) in assay [7]; > 100 µM (inactive) in assay [8]; > 100 µM (inactive) in assay [9]; > 100 µM (inactive) in [10]. In addition, the GI50 in assay [11] was 17.7 µM (inactive); in assay [12] it was > 100 µM (inactive); in assay [19], > 100 µM (inactive); in assay [13], 27.5 µM (inactive); in [14] it was 40.8 µM (inactive); in assay [15] it was > 100 µM (inactive).
Turning to `CCC(C)C(N)C(=O)NC(CC(N)=O)C(=O)NC(CC(C)C)C(=O)NC(CCCCN)C(=O)NC(C)C(=O)NC(CC(C)C)C(=O)NC(C)C(=O)NC(C)C(=O)NC(CC(C)C)C(=O)NC(C)C(=O)NC(CCCCN)C(=O)NC(CCCCN)C(=O)NC(C(=O)NC(CC(C)C)C(N)=O)C(C)CC` (stereo not drawn), the GI50 in assay [1] is 8 µM (inactive); in [3], 9.93 µM (inactive); in assay [4], 15.6 µM (inactive); in assay [5], 17.8 µM (inactive); in assay [6], 6.56 µM (inactive); in assay [18], 14.7 µM (inactive). Moreover, the GI50 in [8] was 19.8 µM (inactive); in assay [9], 13.6 µM (inactive); in assay [10] it was 15.3 µM (inactive); in assay [11], 2.74 µM (inactive); in assay [12], 14.2 µM (inactive); in assay [19], 6.47 µM (inactive). Also, the GI50 was 6.46 µM (inactive) in assay [13], 19 µM (inactive) in assay [14], 14 µM (inactive) in [15] and 18.7 µM (inactive) in assay [16].
Turning to `CCOC(=O)c1c(-c2ccccc2)nc2ccccc2c1O`, the GI50 in [17], in assay [2], in [3], in assay [4], in assay [5] and in [6] was > 100 µM (inactive) in each case. Moreover, the GI50 in assay [18], in assay [7], in [8], in [10], in assay [11] and in [12] was > 100 µM (inactive) in each case. For the same compound, the GI50 is > 100 µM (inactive) in assay [19]; > 10 µM (inactive) in assay [13]; > 100 µM (inactive) in assay [14]; > 100 µM (inactive) in assay [15]; > 100 µM (inactive) in [16].
With `N#C/N=C(\NCCc1c[nH]c2ccccc12)NCc1ccccc1`, the GI50 in [1] was 42.8 µM (inactive); in [3], 60.5 µM (inactive); in [4], 50.9 µM (inactive); in [5], > 100 µM (inactive); in [6], 25.5 µM (inactive); in assay [18], 68.9 µM (inactive). The GI50 is 36 µM (inactive) in [8]; 93.8 µM (inactive) in [9]; 61.4 µM (inactive) in assay [10]; 27.5 µM (inactive) in assay [11]; 98.4 µM (inactive) in [12]; > 100 µM (inactive) in assay [19]. For the same compound, the GI50 was 29.9 µM (inactive) in [13], 32.5 µM (inactive) in assay [14], 25.4 µM (inactive) in assay [15] and > 100 µM (inactive) in [16].
With `C[C@]12CCCC(=O)C1C[C@H](C(=O)O)CC2` (stereo partly drawn), the GI50 in assay [1], in [3], in assay [4], in assay [5], in assay [6] and in [18] was > 100 µM (inactive) throughout. The GI50 in [8], in assay [9], in assay [10], in assay [11], in assay [12] and in assay [19] was > 100 µM (inactive) in each case. Further, the GI50 in assay [13], in assay [14], in [15] and in [16] was > 100 µM (inactive) each time.
As to `Clc1cc(Cc2cc(Cl)c(Cl)c3c2OCOC3)c2c(c1Cl)COCO2`, the GI50 in assay [1] was 25.3 µM (inactive); in assay [3] it was 40.9 µM (inactive); in [4] it was 36.4 µM (inactive); in [5] it was 40.6 µM (inactive); in [6], 25.1 µM (inactive); in [18], 38 µM (inactive). The GI50 is 26.2 µM (inactive) in [8]; 58.6 µM (inactive) in assay [9]; 18.7 µM (inactive) in assay [10]; 93.1 µM (inactive) in [11]; 29.9 µM (inactive) in assay [12]; > 100 µM (inactive) in assay [19]. The GI50 in assay [13] was 30.1 µM (inactive); in [14], 55.2 µM (inactive); in assay [15], 32.4 µM (inactive); in [16], 23.3 µM (inactive).
Consider `COc1cc(Br)c(CC2=NCCc3cc(OC)c(OC)cc32)cc1OC`, for which the GI50 in [1] was 42.9 µM (inactive); in assay [3], 21.1 µM (inactive); in [4], 3.16 µM (inactive); in assay [5], 12.2 µM (inactive); in [6], 16.7 µM (inactive); in assay [18], 48.8 µM (inactive). Besides, the GI50 was 0.7 µM (active) in [8]; 15.3 µM (inactive) in [9]; 28.9 µM (inactive) in assay [10]; 2.33 µM (inactive) in assay [11]; 5.65 µM (inactive) in [12]; 51.2 µM (inactive) in assay [19]. Besides, the GI50 in assay [13] is 19.7 µM (inactive); in assay [14], 6.78 µM (inactive); in [15] it was 14.8 µM (inactive); in assay [16], 24.6 µM (inactive).
With `CO[C@@H]1C[C@H]2[C@@H]3CC[C@H]([C@@H](C)CO)[C@@]3(C)CC[C@@H]2[C@@]2(C)CC[C@H]3C[C@]312`, the GI50 in assay [17] was 85.5 µM (inactive); in assay [1], 45.1 µM (inactive); in assay [2], 22.6 µM (inactive); in assay [3] it was 36 µM (inactive); in assay [4], 34.4 µM (inactive); in assay [5], 50.9 µM (inactive). Also, the GI50 in assay [6] is 42.1 µM (inactive); in assay [18], 53.6 µM (inactive); in assay [7], 16.2 µM (inactive); in assay [8], 30.5 µM (inactive); in [9] it was 33 µM (inactive); in assay [10], 33.2 µM (inactive). In addition, the GI50 in assay [11] is 25.2 µM (inactive); in assay [12], > 100 µM (inactive); in assay [19], 67 µM (inactive); in [13], 40.2 µM (inactive); in [14], 31.6 µM (inactive); in assay [15], 26.5 µM (inactive).
As to `COc1ccc(-c2cc(-c3cc(C)ccc3O)nc(O)n2)cc1`, the GI50 in assay [1] is > 100 µM (inactive); in [3], > 100 µM (inactive); in assay [4] it was 77.1 µM (inactive); in [5], > 100 µM (inactive); in assay [6], 62.5 µM (inactive); in assay [18], 47 µM (inactive). In addition, the GI50 is 41 µM (inactive) in assay [8]; > 100 µM (inactive) in [9]; > 100 µM (inactive) in assay [10]; > 100 µM (inactive) in assay [11]; 40.8 µM (inactive) in assay [12]; 80.9 µM (inactive) in assay [19]. In addition, the GI50 in [13] is > 100 µM (inactive); in [14], > 100 µM (inactive); in [15], 42.8 µM (inactive); in assay [16], 44.4 µM (inactive).

The values above are taken from ChEMBL document CHEMBL1201862, “PubChem BioAssay data set” (2004).
